Source: paper PMC12197275, “Preclinical Pharmacokinetic Evaluation of Mithramycin and Mithramycin SA Tryptophan-Conjugated Analog” (Pharmaceutics, 2025)
Where two headings read alike, the source gives them in different places.

How the values were obtained:
[1] = cited from earlier work
[2] = Plasma PK in male Sprague Dawley rats, IV bolus 0.5 mg/kg (Study 2); conditions: male rat, 0.5 mg/kg IV bolus
Procedure: Rat PK studies were conducted using male Sprague Dawley rats (Study 2; Table 1). […] Blood samples were collected at three different time points by saphenous bleeding. The collection time points were at 5 min and 20 min and at 1, 3, 6, and 9 h. The blood samples were processed and stored as described above.
(§1) All samples were processed and analyzed by LC-MS/MS using a bioanalytical method validated according to the FDA’s Bioanalytical Guidance, essentially as described by Eckenrode et al. with some modifications [15]. […] Plasma samples above the calibration curve range were diluted, along with quality control (QC) samples, and values were accepted when the interpolated concentrations were within 15% of the nominal values. The expected % recovery for both compounds was >90% [15, 16]. Analyte separation and detection were performed on a Sciex Exion HPLC system equipped with a C18 analytical column (Phenomenex Synergi 4 µm Fusion-RP 80A; 50 mm × 2 mm with a guard column) and coupled to a hybrid triple-quadrupole/linear ion trap mass spectrometer (Sciex QTrap 6500+ or 7500+, Framingham, MA, USA). A 0.6 mL/min gradient of 0.005% formic acid in water and 0.005% formic acid in acetonitrile was used to elute the analytes within a 5 min time window. […] The internal standard was the MTM oxime–tryptophan [5]. The instruments were controlled and the data were integrated and processed using Sciex OS software version 3.3.1.43.
(§2) Only concentrations above the limit of quantification were used for NCA. The linear-up log-down trapezoidal integration method was used to estimate the area under the curve from time zero to the last measurable concentration–time point (AUClast). The terminal elimination rate constant (ke) was estimated by log-linear regression using the last three data points of the concentration–time profiles.

[3] = parameters: method as in doi:10.1158/1535-7163.TARG-23-B150; conditions: across different multi-day dosing schedules; cited from earlier work
[4] = tested on: plasma from Cynomolgus monkeys; assay: Plasma protein binding by rapid equilibrium dialysis, monkey plasma; conditions: Cynomolgus macaque plasma
Procedure: (§3) Protein binding was assessed in plasma derived from athymic nude (nu/nu) mice, Sprague Dawley rats, Cynomolgus monkeys, and humans. Plasma from athymic nude mice and Sprague Dawley rats was collected from animals housed locally. […] Plasma was collected by centrifuging the whole blood immediately upon collection, stored at 4 °C, and used within one week of storage for protein binding studies. The plasma was spiked with the compound to prepare 1, 3, and 10 µM final concentrations (0.1% DMSO (v/v)). Spiked plasma (100 µL) and PBS (350 µL) were placed in their respective chambers in the Pierce™ RED Device (12K MWCO; Linden Bioscience, Research Triangle Park, NC, USA) and incubated in a Talboys microplate shaker at 37 °C and 250 rpm for 4 h to achieve equilibrium. Post-dialysis samples were collected from the plasma and buffer chambers, matrix-matched with PBS and plasma, respectively, and analyzed by LC-MS/MS as detailed below. The experiments were performed in triplicate, and the unbound percentage was calculated based on the following equation [13]: fu=PBS chamber area ratio/Plasma chamber area ratio;Area ratio=analyte area/ISTD area
(§4) All samples were processed and analyzed by LC-MS/MS using a bioanalytical method validated according to the FDA’s Bioanalytical Guidance, essentially as described by Eckenrode et al. with some modifications [15]. […] Plasma samples above the calibration curve range were diluted, along with quality control (QC) samples, and values were accepted when the interpolated concentrations were within 15% of the nominal values. […] Analyte separation and detection were performed on a Sciex Exion HPLC system equipped with a C18 analytical column (Phenomenex Synergi 4 µm Fusion-RP 80A; 50 mm × 2 mm with a guard column) and coupled to a hybrid triple-quadrupole/linear ion trap mass spectrometer (Sciex QTrap 6500+ or 7500+, Framingham, MA, USA). A 0.6 mL/min gradient of 0.005% formic acid in water and 0.005% formic acid in acetonitrile was used to elute the analytes within a 5 min time window. […] The internal standard was the MTM oxime–tryptophan [5]. […]

[5] = tested on: plasma from Sprague Dawley rats; assay: Plasma protein binding by rapid equilibrium dialysis, rat plasma
Procedure: as §3, §4

[6] = Cassette microdose plasma PK in male athymic nude mice, 69 µg/kg (Study 5)
Procedure: as §1, §2

[7] = tested on: human plasma; assay: Plasma protein binding by rapid equilibrium dialysis, human plasma
Procedure: as §3
(§5) All samples were processed and analyzed by LC-MS/MS using a bioanalytical method validated according to the FDA’s Bioanalytical Guidance, essentially as described by Eckenrode et al. with some modifications [15]. […] Plasma samples above the calibration curve range were diluted, along with quality control (QC) samples, and values were accepted when the interpolated concentrations were within 15% of the nominal values. […] Analyte separation and detection were performed on a Sciex Exion HPLC system equipped with a C18 analytical column (Phenomenex Synergi 4 µm Fusion-RP 80A; 50 mm × 2 mm with a guard column) and coupled to a hybrid triple-quadrupole/linear ion trap mass spectrometer (Sciex QTrap 6500+ or 7500+, Framingham, MA, USA). A 0.6 mL/min gradient of 0.005% formic acid in water and 0.005% formic acid in acetonitrile was used to elute the analytes within a 5 min time window. […] The internal standard was the MTM oxime–tryptophan [5]. The instruments were controlled and the data were integrated and processed using Sciex OS software version 3.3.1.43.

[8] = Cassette microdose plasma PK in male Sprague Dawley rats, 28 µg/kg (Study 6)
Procedure: as §1, §2

[9] = Plasma PK in male athymic nude mice, IV bolus 2 mg/kg (Study 1); conditions: male mouse, 2 mg/kg IV bolus
Procedure: Four separate PK studies were conducted using nu/nu mice. For studies using destructive sampling, the animals were anesthetized under isoflurane gas and samples were collected through intracardiac puncture in heparinized syringes. […] Blood samples were collected (n = 3 mice/time point) by cardiac puncture at 5 and 30 min and at 1.5, 3, and 6 h. […] Blood samples (n = 3 mice/time point) were collected by cardiac puncture at 5 min, 30 min, 2 h, and 5 h. […] Three groups (n = 9/group) of nu/nu mice were dosed at 0.3 mg/kg, 1 mg/kg, and 3 mg/kg. The mice at each dose level were randomized into three groups of three mice. The sampling time points for the three doses were as follows: 10 min, 20 min, 30 min, 45 min, 1 h, 1.5 h, 2 h, 2.5 h, and 3 h for the 0.3 mg/kg group; 5 min, 15 min, 30 min, 1 h, 2 h, 3 h, 4 h, 6 h, and 8 h for the 1 mg/kg group; and 5 min, 15 min, 30 min, 1 h, 2 h, 4 h, 6 h, 9 h, and 12 h for the 3 mg/kg group. […] Blood samples (n = 2 mice/time point) were collected by cardiac puncture at 10 min, 30 min, 1 h, 3 h, and 6 h. After collection, blood samples were immediately centrifuged at 4000 g for 2 min, and plasma samples were immediately collected and placed on dry ice, followed by storage at −80 °C until analysis.
Plasma samples above the calibration curve range were diluted, along with quality control (QC) samples, and values were accepted when the interpolated concentrations were within 15% of the nominal values.

[10] = male monkey n=1, high microdose cassette: MTM 13.18 µg/kg, MTMSA-Trp 4.19 µg/kg, IV infusion
Procedure: Two separate cassette dosing PK studies were conducted using male cynomolgus monkeys. […] The blood samples were processed and stored as described above.
as §1

[11] = Stability of dosing solutions; conditions: […]; 5% Solutol HS-15/95% PBS pH 8)
[12] = tested on: plasma from athymic nude (nu/nu) mice; assay: Plasma protein binding by rapid equilibrium dialysis, mouse plasma; conditions: for Fraction Unbound (%): athymic nude mouse plasma
Procedure: as §3, §5

[13] = female athymic nude mice, 0.3 mg/kg IV bolus
[14] = female athymic nude mice, 1 mg/kg IV bolus
[15] = female athymic nude mice, 3 mg/kg IV bolus
[16] = female athymic nude mice, 5 mg/kg IV bolus
[17] = female athymic nude mice, 10 mg/kg IV bolus
[18] = male mouse, 69 µg/kg each, cassette IV bolus
[19] = male rat, 28 µg/kg each, cassette IV bolus

Compound: CO[C@@H]([C@@H]1Cc2cc3cc(O[C@H]4CC(O[C@H]5CC(O)[C@H](O)C(C)O5)[C@H](O)C(C)O4)c(C)c(O)c3c(O)c2C(=O)[C@H]1O[C@H]1CC(O[C@H]2CC(O[C@H]3CC(O)[C@H](O)C(C)O3)[C@@H](O)C(C)O2)[C@H](O)C(C)O1)[C@@H](O)C(C)=O (some centres unmarked) [EC-8042]
- systemic clearance ([1]; same as MTM): high systemic clearance

Compound: CO[C@H](C(=O)C(C)=O)[C@@H]1Cc2cc3cc(OC4C[C@@H](OC5C[C@@H](O)[C@H](O)C(C)O5)[C@H](O)C(C)O4)c(C)c(O)c3c(O)c2C(=O)[C@H]1OC1C[C@@H](OC2C[C@@H](OC3C[C@](C)(O)[C@H](O)C(C)O3)[C@@H](O)C(C)O2)[C@H](O)C(C)O1 (some centres unmarked) [MTM-SDK]
- systemic clearance ([1]; in vivo): high systemic clearance

Compound: CO[C@H](C(O)C(C)=O)[C@@H]1Cc2cc3cc(OC4C[C@@H](OC5C[C@@H](O)[C@H](O)C(C)O5)[C@H](O)C(C)O4)c(C)c(O)c3c(O)c2C(=O)[C@H]1OC1C[C@@H](OC2C[C@@H](OC3C[C@](C)(O)[C@H](O)C(C)O3)[C@@H](O)C(C)O2)[C@H](O)C(C)O1 (some centres unmarked) [MTM-SK]
- systemic clearance ([1]; in vivo): high systemic clearance

Compound: COC(=O)[C@H](Cc1c[nH]c2ccccc12)NC(=O)[C@H](Cc1ccccc1)NC(=O)CO/N=C(\[C@@H](O)[C@@H](C)O)[C@@H](OC)[C@@H]1Cc2cc3cc(O[C@H]4C[C@@H](O[C@H]5C[C@@H](O)[C@H](O)[C@@H](C)O5)[C@H](O)[C@@H](C)O4)c(C)c(O)c3c(O)c2C(=O)[C@H]1O[C@H]1C[C@@H](O[C@H]2C[C@@H](O[C@H]3C[C@](C)(O)[C@H](O)[C@@H](C)O3)[C@@H](O)[C@@H](C)O2)[C@H](O)[C@@H](C)O1 [MTMox32E]
- systemic clearance ([1]; in vivo): low systemic clearance

Compound: mithramycin SA-Trp [MTMSA-Trp]
- AUC0–inf [2]: 3486 ng·h/mL
- CL [2]: 2.38 mL/min/kg
- Extrapolated AUC0–inf [2]: 1.43%
- Terminal t1/2 [2]: 1.56 h
- Vd [2]: 0.324 L/kg
- estimated systemic clearance, average (average over 1, 3, 5, and 10 mg/kg, female athymic nude mice): approximately 41 mL/h/kg
- AUC0–inf [13]: 4373 ng·h/mL
- CL [13]: 1.15 mL/min/kg
- Extrapolated AUC0–inf [13]: 0.4%
- Vd [13]: 0.045 L/kg
- t1/2 [13]: 0.5 h
- AUC0–inf [14]: 24,419 ng/mL·h
- CL [14]: 0.683 mL/min/kg
- Extrapolated AUC0–inf [14]: 0.2%
- Vd [14]: 0.075 L/kg
- t1/2 [14]: 1.3 h
- AUC0–inf [15]: 91,778 ng/mL·h
- CL [15]: 0.55 mL/min/kg
- Extrapolated AUC0–inf [15]: 0.2%
- Vd [15]: 0.123 L/kg
- t1/2 [15]: 2.6 h
- CL [16]: 0.6 mL/min/kg
- Extrapolated AUC0–inf [16]: 6.5%
- Vd [16]: 0.08 L/kg
- t1/2 [16]: 1.5 h
- AUC0–inf [17]: 216,281 ng/mL·h
- CL [17]: 0.767 mL/min/kg
- Extrapolated AUC0–inf [17]: 5.6%
- Vd [17]: 0.081 L/kg
- t1/2 [17]: 1.2 h
- linear kinetics range (female athymic nude mice, IV bolus): 1 to 10 mg/kg
- dose proportionality (mice, 1, 3, and 10 mg/kg doses): linear pharmacokinetics
- maximum tolerated doses [3]: 1 to 3 mg/kg
- Fraction Unbound (%) ([4]; 1 µM): 1.03 ± 0.27%
- Fraction Unbound (%) ([4]; 3 µM): 1.02 ± 0.09%
- Fraction Unbound (%) ([4]; 10 µM): 1.14 ± 0.15%
- Fraction Unbound (%) ([5]; 1 µM): 2.41 ± 1.29%
- Fraction Unbound (%) ([5]; 3 µM): 3.85 ± 0.08%
- Fraction Unbound (%) ([5]; 10 µM): 3.88 ± 0.54%
- AUC0–inf [6, 18]: 569 ng·h/mL
- CL [6, 18]: 2.02 mL/min/kg
- Extrapolated AUC0–inf [6, 18]: 3.2%
- Terminal t1/2 [6, 18]: 1.8 h
- Vd [6, 18]: 0.318 L/kg
- change of systemic clearance between microgram- and milligram-level doses ([6]; mice, 69 µg/kg vs 2 mg/kg): approximately 0.4 fold
- Fraction Unbound (%) ([7]; 1 µM): <1%
- Fraction Unbound (%) ([7]; 3 µM): <1%
- Fraction Unbound (%) ([7]; 10 µM): <1%
- unbound fraction ([7]; across tested concentrations): < 1%
- AUC0–inf [8, 19]: 223 ng·h/mL
- CL [8, 19]: 2.1 mL/min/kg
- Extrapolated AUC0–inf [8, 19]: 8.4%
- Terminal t1/2 [8, 19]: 2.4 h
- Vd [8, 19]: 0.428 L/kg
- change of systemic clearance between microgram- and milligram-level doses ([8]; rats, 28 µg/kg vs 0.5 mg/kg): remained similar
- AUC0–inf [9]: 38,564 ng/mL·h
- CL [9]: 0.867 mL/min/kg
- Extrapolated AUC0–inf [9]: 8.07%
- Terminal t1/2 [9]: 1.85 h
- Vd [9]: 0.138 L/kg
- AUC0–inf [10]: 181 ng·h/mL
- CL [10]: 0.383 mL/min/kg
- Extrapolated AUC0–inf [10]: 4.99%
- Terminal t1/2 [10]: 0.78 h
- Vd [10]: 0.026 L/kg
- stability of dosing solution following formulation [11]: at least 11 days
- Fraction Unbound (%) ([12]; 1 µM): <1%
- Fraction Unbound (%) ([12]; 3 µM): <1%
- Fraction Unbound (%) ([12]; 10 µM): <1%
- unbound fraction ([12]; nu/nu mouse plasma, across tested concentrations (1, 3, 10 µM)): < 1%
